Results reported in patent publication US12251234B2, “Systems and methods for transdermally detecting tissue ischemia and evaluating organ function using serum luminescence” (University of Macau, priority 2018, dated 2025).

What was measured:
liver = test: Biochemical assay of rat serum in DEN-induced hepatocellular carcinoma rat model; assay type: in vivo
Method: Hepatocellular carcinoma (HCC) is a well-known malignant liver tumor often caused by liver cirrhosis. N-Nitrosodiethylamine ([…], DEN), which is a toxic substance with strong liver toxicity, was used to induce HCC in a rat tumor model. The dose of 300 g rats was 0.75 ml DEN/5 liters in drinking water; the dose of 400 g rats was 1.0 ml DEN/5 liters in drinking water. When the rats weighed over 200 g (about 6-7 weeks), they started to be fed. Group 1 was fed a half dose DEN, while Group 3 was fed a full dose. After 6 weeks of consecutive feeding (at the 12th week of experiment), feeding DEN to Group 1 discontinued. Group 3 continued scheduled DEN feedings for three additional weeks. Liver tumors were formed and confirmed by high-frequency ultrasonic imaging in vivo.
After rats were sacrificed, blood was collected and centrifuged, and the serum from centrifuge was tested, which included albumin, total bilirubin, glutamic pyruvic transaminase and glutamic oxaloacetic transaminase. If the liver is abnormal, the albumin content in the blood will decrease. Total bilirubin contains direct bilirubin and indirect bilirubin, which are the product of liver metabolism. If liver function is abnormal, total bilirubin in blood rises. Glutamic-pyruvate transaminase (GPT) and glutamic oxaloacetic transaminase (GOT) are also commonly used markers to evaluate liver function, although these two enzymes are not only found in the liver. Nevertheless, they are more abundant in liver cells than in other organs or tissue. When the liver is damaged, inflamed liver cells release GPT and GOT into the blood in large quantities. Therefore, the amount of these factors in the blood may be useful as a basis for judging the health of liver function. In addition, the liver was made into a paraffin block and processed with H&E staining. The staining results were observed and imaged by Nikon ECLIPSE NiE orthotropic fluorescence microscope.

[1] = healthy person; cited from earlier work
[2] = ICG fluorescence dosimetry in rat blood vessels (retention/decay of ICG in circulation); assay type: in vivo
Method: Embodiments of the present disclosure enable systems and methods for detecting organ dysfunction and were validated using two optical systems to perform ICG fluorescence dosimetry on rats developing hepatocellular carcinoma (HCC).
One optical system used was a multiphoton microscope, which can non-invasively identify the location of vessels in vivo from sectioning two-photon fluorescence imaging. Time-course dynamics of concentration decay were also analyzed by the signal intensity within vessels. The other tested optical system was a point excitation and time course measurement using a 785 nm laser.
As shown in the diagram of FIG. 11, the multiphoton microscopy system used the scanning inverted microscope system of Leica DMI 3000M. The laser source was the femtosecond Cr:forsterite laser with a central wavelength of about 1250 nm. The output power was about 570 mW, and the beam diameter was about 2.5 mm. The excited light passed through a set of Galilean telescopes consisting of flat convex lenses and flat concave lenses to shrink the beam size down below 2 mm. Then, the excited beam passed through the periscope to rotate the polarization. After passing through the Iris Pair for system alignment, the beam entered a scanning module composed of a 16 kHz resonant mirror and a galvanometer mirror. The scanning angle of the resonant scanner was 5 degrees. The excited light was expanded by a set of relaying lenses so that it just filled the back aperture of the objective lens. The excitation beam was reflected by a 900-nm edged dichroic beam splitter (DM 900 SP) and focused by an objective lens (63×/NA 1.15. Zeiss) to excite biological tissues.
The generated two-photon fluorescence signals of ICG were epi-collected by the same objective lens and penetrated the DM900 SP. The signals were directed to a 484 nm edged dichroic beam splitter (DM484LP). The third harmonic generation signal (417 nm) was separated from the fluorescent signals longer than 484 nm. The third harmonic generation (THG) and two photon fluorescent (TPF) signals were filtered by a 414 nm/18 nm band pass filter and a 650 nm long pass filter, respectively. These signals were subsequently detected by photomultiplier tubes and digitized by a field programmable logic gate array (FPGA).
After the injection of ICG into the tail, there was a relatively low scattering and absorption of laser in the 1230 nm band, so the wavelength band could penetrate the skin deeper, and the background noise was low. Because blood cells can give strong THG signals, it was possible to locate the blood vessel by using THG imaging, as shown in FIG. 15A. Before ICG injection, there was no TPF signal (see FIG. 15B). After the injection, the TPF signals appeared immediately in the region of vessel (see FIG. 15C).
By selecting the region of interest (ROI) within vessel, we quantified the TPF intensity within the vessels. The fluorescence dosimetry curve of ICG can thus be measured (as shown in FIG. 16), which is ideal to evaluate the liver function. The dosimetry curve can be fitted with a single exponential decay function (red curve in FIG. 16), which represents a 4.4 minutes decay time constant after injection of ICG. The decay constant can be used as an index to evaluate the liver function. For Group 1 and Group 3 four serum parameters were measured to obtain liver function information: serum albumin, total bilirubin, GPT, and GOT. […]

[3] = Group 1: half dose DEN in drinking water, 6 weeks
[4] = Group 3: full dose DEN in drinking water, 9 weeks
[5] = Group 3 rats (full dose DEN, HCC), FIG. 18

Q: Which Albumin (liver; [3]) does the source give for `CCN(CC)N=O` [DEN, N-Nitrosodiethylamine] here?
A: The Albumin was 3.9 g/dL.

Q: And the GOT (liver; [3])?
A: The GOT was 89 U/L.

Q: And the GPT (liver; [3])?
A: Its GPT is 60.3 U/L.

Q: What about the Total bilirubin (liver; [3]) of the same compound?
A: Its Total bilirubin is 0.27 mg/dL.

Q: What about the Albumin (liver; [4]) of the same compound?
A: Its Albumin is 3.75 g/dL.

Q: And the GOT (liver; [4])?
A: The GOT was 265 U/L.

Q: And the GPT (liver; [4])?
A: The GPT was 129 U/L.

Q: What about the Total bilirubin (liver; [4]) of the same compound?
A: Its Total bilirubin is 0.6 mg/dL.

Q: What does the source list for `CC1(C)C(/C=C/C=C/C=C/C=C2\N(CCCCS(=O)(=O)O)c3ccc4ccccc4c3C2(C)C)=[N+](CCCCS(=O)(=O)[O-])c2ccc3ccccc3c21` [ICG, indocyanine green]?
A: ICG-15 (retention percentage at 15 minutes post ICG injection) [1]: below 10 % of the initial concentration; decay time (exponential decay model fit) [2, 5]: 13 min; initial amount still retained in circulation at 15 minutes post injection [2, 5]: 45%; decay time constant after injection of ICG (single exponential decay fit) ([2]; healthy control Group rats, FIG. 16): 4.4 min; amount of ICG metabolized within 15 minutes ([2]; healthy control Group rats, TPF dosimetry curve, FIG. 16): 90%; leakage of ICG out of blood vessels (TPF imaging after tail injection) ([2]; rat, sectioning TPF/THG images, FIG. 15): did not leak out into extravascular spaces
